The values below come from ChEMBL document CHEMBL5728557, “Azetidine derivative, preparation method therefor, and use thereof” (2021).

The target of one data set is CYP3A4 (Homo sapiens, UniProt P08684). Description: (§1) As such, the compound of the present invention has no significant inhibitory effect on CYP1A2, CYP2D6 and CYP3A4, and thus has no safety issue caused by metabolism interactions among different drugs due to inhibition of the enzymes.
For another data set, the target named is T1, Cytochrome P450 1A2 (Homo sapiens, UniProt P05177).
T1 sequence (P05177 whole entry): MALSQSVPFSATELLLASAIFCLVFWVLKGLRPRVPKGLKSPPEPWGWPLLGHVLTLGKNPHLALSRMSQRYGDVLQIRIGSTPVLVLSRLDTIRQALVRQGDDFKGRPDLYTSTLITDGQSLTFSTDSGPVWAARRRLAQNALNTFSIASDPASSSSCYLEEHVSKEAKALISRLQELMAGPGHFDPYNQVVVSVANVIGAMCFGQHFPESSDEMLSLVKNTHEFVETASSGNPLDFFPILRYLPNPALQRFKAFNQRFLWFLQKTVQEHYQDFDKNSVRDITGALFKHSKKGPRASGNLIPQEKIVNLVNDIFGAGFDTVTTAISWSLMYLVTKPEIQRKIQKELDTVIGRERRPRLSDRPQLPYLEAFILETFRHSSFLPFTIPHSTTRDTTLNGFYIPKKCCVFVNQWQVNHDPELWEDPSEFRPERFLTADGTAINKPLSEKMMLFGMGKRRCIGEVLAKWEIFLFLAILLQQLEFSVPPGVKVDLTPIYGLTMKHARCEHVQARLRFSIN
Described as §1.

The target of the next data set is CYP2D6 (Homo sapiens, UniProt P10635). The data set is described as §1.
Data set [1] deals with Voltage-gated inwardly rectifying potassium channel KCNH2 (Homo sapiens, UniProt Q12809). Nature of the data set: Safety Test: The effect of test compounds on hERG potassium channel were determined using Predictor hERG Fluorescence Polarization Assay at concentrations of 3, 10, and 30 μM.
Chain of Voltage-gated inwardly rectifying potassium channel KCNH2 (Q12809 whole entry): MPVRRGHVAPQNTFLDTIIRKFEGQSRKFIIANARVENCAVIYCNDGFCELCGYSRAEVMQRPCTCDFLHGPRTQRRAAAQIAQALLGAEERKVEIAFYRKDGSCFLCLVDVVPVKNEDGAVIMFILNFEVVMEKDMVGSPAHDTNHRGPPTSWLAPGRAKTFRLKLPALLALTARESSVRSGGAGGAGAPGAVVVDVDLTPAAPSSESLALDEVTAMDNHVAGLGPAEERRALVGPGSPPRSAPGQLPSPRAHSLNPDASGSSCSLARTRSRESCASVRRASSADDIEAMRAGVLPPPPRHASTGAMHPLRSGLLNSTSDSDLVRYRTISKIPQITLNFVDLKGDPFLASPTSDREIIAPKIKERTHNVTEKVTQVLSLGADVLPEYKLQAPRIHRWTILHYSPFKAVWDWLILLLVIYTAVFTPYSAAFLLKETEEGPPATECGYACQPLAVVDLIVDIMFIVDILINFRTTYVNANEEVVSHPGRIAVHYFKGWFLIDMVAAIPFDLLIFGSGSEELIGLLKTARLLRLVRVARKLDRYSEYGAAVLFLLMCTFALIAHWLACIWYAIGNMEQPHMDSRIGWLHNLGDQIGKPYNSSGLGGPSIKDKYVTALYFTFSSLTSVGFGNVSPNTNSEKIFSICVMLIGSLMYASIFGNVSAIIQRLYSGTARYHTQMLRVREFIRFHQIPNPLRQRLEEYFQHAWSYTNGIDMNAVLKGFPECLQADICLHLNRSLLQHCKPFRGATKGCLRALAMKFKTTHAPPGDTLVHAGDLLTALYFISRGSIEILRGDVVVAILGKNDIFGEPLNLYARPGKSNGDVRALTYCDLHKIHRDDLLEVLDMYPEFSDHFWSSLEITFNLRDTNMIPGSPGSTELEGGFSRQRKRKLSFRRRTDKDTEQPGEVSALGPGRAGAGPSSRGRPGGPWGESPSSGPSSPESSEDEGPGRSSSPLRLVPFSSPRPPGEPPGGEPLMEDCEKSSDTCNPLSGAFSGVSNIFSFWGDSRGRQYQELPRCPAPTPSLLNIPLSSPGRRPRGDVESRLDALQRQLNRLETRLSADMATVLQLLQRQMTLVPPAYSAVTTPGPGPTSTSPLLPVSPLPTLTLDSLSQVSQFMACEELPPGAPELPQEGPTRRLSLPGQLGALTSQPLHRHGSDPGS

Chain of CYP2D6 (P10635 whole entry): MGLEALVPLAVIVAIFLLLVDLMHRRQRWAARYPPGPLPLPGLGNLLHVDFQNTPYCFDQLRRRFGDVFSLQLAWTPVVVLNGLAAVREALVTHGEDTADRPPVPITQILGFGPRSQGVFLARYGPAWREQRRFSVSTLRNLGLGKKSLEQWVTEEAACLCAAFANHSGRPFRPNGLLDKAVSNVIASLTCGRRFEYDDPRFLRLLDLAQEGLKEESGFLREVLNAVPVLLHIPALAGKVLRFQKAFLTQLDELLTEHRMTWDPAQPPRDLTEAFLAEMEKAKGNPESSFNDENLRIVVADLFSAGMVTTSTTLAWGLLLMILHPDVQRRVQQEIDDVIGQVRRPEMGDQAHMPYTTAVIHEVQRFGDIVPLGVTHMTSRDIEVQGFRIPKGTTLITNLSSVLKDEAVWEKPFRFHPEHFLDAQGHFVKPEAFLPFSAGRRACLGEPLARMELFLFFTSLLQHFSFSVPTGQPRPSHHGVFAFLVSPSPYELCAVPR
Chain of CYP3A4 (P08684 whole entry): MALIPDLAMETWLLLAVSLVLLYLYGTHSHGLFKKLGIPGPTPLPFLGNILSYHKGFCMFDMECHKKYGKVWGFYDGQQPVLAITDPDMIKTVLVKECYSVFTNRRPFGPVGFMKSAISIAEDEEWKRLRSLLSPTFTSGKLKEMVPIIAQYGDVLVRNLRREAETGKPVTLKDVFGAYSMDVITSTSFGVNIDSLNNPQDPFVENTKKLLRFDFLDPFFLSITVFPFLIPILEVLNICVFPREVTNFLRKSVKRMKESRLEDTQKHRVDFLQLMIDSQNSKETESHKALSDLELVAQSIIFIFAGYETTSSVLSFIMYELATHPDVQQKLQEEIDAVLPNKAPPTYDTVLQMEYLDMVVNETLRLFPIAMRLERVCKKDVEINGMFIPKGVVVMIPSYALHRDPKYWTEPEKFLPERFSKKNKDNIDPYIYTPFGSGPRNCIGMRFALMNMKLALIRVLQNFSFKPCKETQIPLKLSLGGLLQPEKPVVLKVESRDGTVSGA

By IC50 is commonly meant the concentration needed to halve the response being measured. Take `Cc1nn(C2(CC#N)CN(S(=O)(=O)C(C)C)C2)cc1-c1ncnc2[nH]ccc12`: the 50% inhibitory concentration (IC50) is more than 10 µM against CYP3A4, more than 10 µM against Cytochrome P450 1A2, more than 10 µM at CYP2D6 and more than 30 µM in data set [1].
